Data as given in ChEMBL document CHEMBL1147203, “Phosph(on)ate as a zinc-binding group in metalloenzyme inhibitors: X-ray crystal structure of the antiviral drug foscarnet complexed to human carbonic anhydrase I” (Bioorg Med Chem Lett, 2007).

Assays:
Carbonic anhydrase 7 = Carbonic anhydrase 7 (Homo sapiens, UniProt P43166); assay: Inhibition of human recombinant CA7 by CO2 hydration assay
[1] = biological target: Carbonic anhydrase 5B, mitochondrial (Homo sapiens, UniProt Q9Y2D0); assay: Inhibition of human recombinant CA5B by CO2 hydration assay
Carbonic anhydrase 12 = Carbonic anhydrase 12 (Homo sapiens, UniProt O43570); assay: Inhibition of human recombinant CA12 by CO2 hydration assay
Carbonic anhydrase 6 = Carbonic anhydrase 6 (Homo sapiens, UniProt P23280); assay: Inhibition of human recombinant CA6 by CO2 hydration assay
Carbonic anhydrase 14 = Carbonic anhydrase 14 (Homo sapiens, UniProt Q9ULX7); assay: Inhibition of human recombinant CA14 by CO2 hydration assay
Carbonic anhydrase 13 = Carbonic anhydrase 13 (Mus musculus, UniProt Q9D6N1); assay: Inhibition of mouse recombinant CA13 by CO2 hydration assay
Sequence of Carbonic anhydrase 13 (Q9D6N1 whole entry): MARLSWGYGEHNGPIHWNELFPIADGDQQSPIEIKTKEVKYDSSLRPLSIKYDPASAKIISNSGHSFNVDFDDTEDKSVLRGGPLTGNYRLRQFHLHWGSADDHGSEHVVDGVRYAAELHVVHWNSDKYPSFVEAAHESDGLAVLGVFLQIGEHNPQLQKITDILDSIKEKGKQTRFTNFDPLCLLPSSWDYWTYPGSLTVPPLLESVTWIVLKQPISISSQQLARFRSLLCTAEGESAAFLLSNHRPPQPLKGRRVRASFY

Sequence of Carbonic anhydrase 14 (Q9ULX7 whole entry): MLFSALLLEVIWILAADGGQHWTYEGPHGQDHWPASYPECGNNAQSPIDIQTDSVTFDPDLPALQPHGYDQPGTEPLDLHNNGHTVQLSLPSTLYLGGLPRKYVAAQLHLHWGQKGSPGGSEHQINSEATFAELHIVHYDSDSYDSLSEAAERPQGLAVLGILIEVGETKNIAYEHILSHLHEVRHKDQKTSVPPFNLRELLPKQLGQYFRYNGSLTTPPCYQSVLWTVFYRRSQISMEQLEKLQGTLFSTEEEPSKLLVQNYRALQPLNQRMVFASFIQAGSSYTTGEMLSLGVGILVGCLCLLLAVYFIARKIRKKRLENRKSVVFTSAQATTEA
Sequence of Carbonic anhydrase 12 (O43570 whole entry): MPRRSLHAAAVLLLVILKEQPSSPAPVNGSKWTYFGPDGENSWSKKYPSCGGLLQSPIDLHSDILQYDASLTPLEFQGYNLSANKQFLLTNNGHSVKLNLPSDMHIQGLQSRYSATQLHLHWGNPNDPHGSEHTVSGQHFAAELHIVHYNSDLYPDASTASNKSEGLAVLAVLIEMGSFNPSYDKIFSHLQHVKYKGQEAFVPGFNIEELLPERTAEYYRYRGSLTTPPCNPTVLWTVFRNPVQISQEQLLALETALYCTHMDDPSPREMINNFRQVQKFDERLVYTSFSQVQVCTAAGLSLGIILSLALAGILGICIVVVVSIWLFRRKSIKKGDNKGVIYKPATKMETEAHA
Sequence of Carbonic anhydrase 5B, mitochondrial (Q9Y2D0 whole entry): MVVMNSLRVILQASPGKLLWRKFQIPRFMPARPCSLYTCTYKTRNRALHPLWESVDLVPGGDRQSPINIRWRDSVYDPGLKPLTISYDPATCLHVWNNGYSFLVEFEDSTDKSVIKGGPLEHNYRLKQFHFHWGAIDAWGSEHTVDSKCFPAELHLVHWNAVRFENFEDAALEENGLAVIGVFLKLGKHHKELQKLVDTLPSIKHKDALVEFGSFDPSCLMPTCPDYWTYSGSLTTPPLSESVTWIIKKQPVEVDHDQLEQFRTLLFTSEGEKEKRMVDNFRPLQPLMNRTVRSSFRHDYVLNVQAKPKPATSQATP
Sequence of Carbonic anhydrase 7 (P43166 whole entry): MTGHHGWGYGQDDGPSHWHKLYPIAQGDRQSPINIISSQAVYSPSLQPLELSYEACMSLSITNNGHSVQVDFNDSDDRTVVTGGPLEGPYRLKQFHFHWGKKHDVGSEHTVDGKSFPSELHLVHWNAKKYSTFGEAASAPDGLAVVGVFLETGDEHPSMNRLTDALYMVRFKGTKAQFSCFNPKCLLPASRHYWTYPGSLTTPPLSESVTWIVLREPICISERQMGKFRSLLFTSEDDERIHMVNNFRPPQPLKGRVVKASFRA
Sequence of Carbonic anhydrase 6 (P23280 whole entry): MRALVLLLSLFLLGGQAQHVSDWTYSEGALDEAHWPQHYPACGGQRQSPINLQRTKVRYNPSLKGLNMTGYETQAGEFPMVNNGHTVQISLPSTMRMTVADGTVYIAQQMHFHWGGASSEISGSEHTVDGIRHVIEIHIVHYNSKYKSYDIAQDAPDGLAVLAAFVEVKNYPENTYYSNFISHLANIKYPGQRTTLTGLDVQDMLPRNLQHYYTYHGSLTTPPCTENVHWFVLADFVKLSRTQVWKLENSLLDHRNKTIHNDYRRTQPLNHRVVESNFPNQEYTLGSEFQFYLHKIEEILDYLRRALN

Structure (SMILES): O=C(O)P(=O)(O)O [FOSCARNET SODIUM]
- Ki (Carbonic anhydrase 7): 560 µM
- Ki [1]: 11.8 mM
- Ki (Carbonic anhydrase 12): 1.29 mM
- Ki (Carbonic anhydrase 6): 1.81 mM
- Ki (Carbonic anhydrase 14): 3.6 mM
- Ki (Carbonic anhydrase 13): 870 µM
